Source: PMC7026418, “The kinase polypharmacology landscape of clinical PARP inhibitors” (Scientific Reports, 2020)
Like-named read-outs stand apart in the source and are kept apart here. One block for each molecule: values may come before it.

Legend:
Experiment in all cases: biochemical
Set-up in all cases: DiscoveRx KINOMEscan active site-directed competition binding; percent of control kinase bound to immobilised ligand
FLT1 = FLT1 (Homo sapiens, UniProt P17948)
ERK2 = target: T1, ERK2 (Homo sapiens, UniProt P28482)
T1 construct: gene MAPK1

PIK3CA(H1047Y) = PIK3CA(H1047Y) (Homo sapiens, UniProt P42336, H1047Y)
[1] = target: T2, ABL1(T315I)-nonphosphorylated (Homo sapiens, UniProt P00519, T315I)
T2 construct: nonphosphorylated

DMPK = target: T3, DMPK (Homo sapiens, UniProt Q09013)
T3 sequence (Q09013 1-629): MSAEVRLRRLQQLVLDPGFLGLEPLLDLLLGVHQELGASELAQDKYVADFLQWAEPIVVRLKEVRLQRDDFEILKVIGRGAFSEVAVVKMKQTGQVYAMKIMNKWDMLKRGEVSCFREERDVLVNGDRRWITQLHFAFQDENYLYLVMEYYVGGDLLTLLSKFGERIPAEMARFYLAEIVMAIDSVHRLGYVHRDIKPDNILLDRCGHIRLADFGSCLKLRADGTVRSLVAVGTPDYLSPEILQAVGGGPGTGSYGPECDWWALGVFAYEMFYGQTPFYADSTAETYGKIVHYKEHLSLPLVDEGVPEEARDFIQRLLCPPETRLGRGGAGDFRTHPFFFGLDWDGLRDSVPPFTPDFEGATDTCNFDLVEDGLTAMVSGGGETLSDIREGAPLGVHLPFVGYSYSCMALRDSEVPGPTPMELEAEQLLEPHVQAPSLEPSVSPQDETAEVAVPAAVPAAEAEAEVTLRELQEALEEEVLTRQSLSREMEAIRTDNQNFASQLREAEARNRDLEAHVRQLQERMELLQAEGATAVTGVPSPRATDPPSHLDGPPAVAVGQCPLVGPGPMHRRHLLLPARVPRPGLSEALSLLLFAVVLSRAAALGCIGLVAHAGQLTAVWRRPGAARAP

FLT3(R834Q) = target: T4, FLT3(R834Q) (Homo sapiens, UniProt P36888, R834Q)
T4 sequence (P36888 1-993 R834Q): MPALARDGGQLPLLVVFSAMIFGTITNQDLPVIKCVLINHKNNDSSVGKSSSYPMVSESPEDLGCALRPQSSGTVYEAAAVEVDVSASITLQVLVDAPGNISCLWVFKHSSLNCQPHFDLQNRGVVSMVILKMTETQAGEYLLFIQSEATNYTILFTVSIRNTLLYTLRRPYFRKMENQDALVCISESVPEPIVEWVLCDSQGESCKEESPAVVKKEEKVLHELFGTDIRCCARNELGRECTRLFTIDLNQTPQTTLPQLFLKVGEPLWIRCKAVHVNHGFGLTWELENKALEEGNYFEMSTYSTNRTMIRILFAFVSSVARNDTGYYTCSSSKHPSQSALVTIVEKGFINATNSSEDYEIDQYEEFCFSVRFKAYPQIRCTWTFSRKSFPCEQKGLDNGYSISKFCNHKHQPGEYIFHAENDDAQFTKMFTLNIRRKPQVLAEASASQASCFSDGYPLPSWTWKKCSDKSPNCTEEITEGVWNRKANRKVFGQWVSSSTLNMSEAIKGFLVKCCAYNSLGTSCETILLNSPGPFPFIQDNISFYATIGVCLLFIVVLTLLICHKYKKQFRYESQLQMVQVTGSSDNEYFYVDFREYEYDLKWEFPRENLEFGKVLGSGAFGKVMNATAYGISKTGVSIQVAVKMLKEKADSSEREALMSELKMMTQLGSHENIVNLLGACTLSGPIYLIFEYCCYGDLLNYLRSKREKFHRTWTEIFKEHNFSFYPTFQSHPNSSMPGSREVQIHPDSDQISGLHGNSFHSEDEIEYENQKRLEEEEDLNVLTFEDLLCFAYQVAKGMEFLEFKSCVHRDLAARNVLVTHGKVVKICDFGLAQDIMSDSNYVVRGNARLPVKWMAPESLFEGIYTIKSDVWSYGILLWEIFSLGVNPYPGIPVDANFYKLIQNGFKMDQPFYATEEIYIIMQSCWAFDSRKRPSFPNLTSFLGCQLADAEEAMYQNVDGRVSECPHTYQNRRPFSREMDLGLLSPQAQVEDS

CSNK1G2 = CSNK1G2 (Homo sapiens, UniProt P78368)
ZAP70 = target: T5, ZAP70 (Homo sapiens, UniProt P43403)
T5 sequence (P43403 1-619): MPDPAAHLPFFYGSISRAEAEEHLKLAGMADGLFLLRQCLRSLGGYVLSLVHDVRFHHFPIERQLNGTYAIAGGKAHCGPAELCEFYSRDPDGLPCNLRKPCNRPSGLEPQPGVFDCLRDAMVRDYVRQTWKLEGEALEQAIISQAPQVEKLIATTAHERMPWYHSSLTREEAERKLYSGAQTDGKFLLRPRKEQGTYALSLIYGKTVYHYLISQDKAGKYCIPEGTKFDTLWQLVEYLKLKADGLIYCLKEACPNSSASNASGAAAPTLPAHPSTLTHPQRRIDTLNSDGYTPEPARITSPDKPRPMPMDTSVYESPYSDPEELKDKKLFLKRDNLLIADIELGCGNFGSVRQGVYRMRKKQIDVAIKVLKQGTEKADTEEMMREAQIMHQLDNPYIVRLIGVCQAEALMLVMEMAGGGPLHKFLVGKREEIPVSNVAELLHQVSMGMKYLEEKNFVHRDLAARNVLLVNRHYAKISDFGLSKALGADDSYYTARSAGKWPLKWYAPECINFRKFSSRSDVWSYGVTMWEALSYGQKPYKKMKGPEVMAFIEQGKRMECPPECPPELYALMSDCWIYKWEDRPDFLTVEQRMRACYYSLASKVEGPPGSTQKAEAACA

[2] = read-out: Niraparib (MK-4827) / %Ctrl @ 10000nM
[3] = read-out: Olaparib / %Ctrl @ 10000nM
[4] = read-out: Rucaparib / %Ctrl @ 10000nM, binding competition, % of control
[5] = read-out: Talazoparib (BMN 673) / %Ctrl @ 10000nM

Sequence of PIK3CA(H1047Y) (P42336 whole entry H1047Y): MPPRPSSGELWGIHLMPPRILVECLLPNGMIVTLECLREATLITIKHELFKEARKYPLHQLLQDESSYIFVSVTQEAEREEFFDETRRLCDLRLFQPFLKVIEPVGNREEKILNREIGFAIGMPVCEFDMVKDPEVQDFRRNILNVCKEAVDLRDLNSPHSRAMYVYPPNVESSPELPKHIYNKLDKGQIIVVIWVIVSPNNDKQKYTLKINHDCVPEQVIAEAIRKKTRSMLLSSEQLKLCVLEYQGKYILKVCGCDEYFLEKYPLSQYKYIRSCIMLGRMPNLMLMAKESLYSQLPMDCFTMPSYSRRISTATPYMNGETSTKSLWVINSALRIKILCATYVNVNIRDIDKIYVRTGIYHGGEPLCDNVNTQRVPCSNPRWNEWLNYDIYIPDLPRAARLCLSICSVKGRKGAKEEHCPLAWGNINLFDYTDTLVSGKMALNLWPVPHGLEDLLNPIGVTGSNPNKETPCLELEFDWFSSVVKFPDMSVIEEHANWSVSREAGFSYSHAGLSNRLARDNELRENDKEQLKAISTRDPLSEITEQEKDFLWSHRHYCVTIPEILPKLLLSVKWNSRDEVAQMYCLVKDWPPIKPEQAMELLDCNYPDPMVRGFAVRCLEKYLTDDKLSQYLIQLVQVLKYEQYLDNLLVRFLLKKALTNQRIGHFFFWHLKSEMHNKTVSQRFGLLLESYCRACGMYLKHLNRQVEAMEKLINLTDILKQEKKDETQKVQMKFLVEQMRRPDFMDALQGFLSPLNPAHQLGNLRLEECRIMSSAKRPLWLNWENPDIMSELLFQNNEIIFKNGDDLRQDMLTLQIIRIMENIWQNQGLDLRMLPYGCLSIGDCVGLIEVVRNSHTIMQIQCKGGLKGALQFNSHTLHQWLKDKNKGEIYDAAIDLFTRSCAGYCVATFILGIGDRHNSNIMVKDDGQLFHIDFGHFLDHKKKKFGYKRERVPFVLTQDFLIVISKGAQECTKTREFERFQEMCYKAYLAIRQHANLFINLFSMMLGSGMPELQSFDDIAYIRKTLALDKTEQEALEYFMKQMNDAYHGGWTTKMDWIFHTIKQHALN
T1 sequence (P28482 whole entry): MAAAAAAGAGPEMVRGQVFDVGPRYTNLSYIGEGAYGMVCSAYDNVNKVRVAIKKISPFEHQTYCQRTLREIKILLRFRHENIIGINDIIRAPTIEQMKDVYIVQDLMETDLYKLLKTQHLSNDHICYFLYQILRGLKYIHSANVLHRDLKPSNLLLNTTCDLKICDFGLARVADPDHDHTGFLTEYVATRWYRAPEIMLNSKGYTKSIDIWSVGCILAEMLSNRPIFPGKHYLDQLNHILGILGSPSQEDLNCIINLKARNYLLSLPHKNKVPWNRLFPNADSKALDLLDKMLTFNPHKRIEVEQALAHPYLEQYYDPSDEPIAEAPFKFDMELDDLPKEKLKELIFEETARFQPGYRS
Sequence of FLT1 (P17948 whole entry): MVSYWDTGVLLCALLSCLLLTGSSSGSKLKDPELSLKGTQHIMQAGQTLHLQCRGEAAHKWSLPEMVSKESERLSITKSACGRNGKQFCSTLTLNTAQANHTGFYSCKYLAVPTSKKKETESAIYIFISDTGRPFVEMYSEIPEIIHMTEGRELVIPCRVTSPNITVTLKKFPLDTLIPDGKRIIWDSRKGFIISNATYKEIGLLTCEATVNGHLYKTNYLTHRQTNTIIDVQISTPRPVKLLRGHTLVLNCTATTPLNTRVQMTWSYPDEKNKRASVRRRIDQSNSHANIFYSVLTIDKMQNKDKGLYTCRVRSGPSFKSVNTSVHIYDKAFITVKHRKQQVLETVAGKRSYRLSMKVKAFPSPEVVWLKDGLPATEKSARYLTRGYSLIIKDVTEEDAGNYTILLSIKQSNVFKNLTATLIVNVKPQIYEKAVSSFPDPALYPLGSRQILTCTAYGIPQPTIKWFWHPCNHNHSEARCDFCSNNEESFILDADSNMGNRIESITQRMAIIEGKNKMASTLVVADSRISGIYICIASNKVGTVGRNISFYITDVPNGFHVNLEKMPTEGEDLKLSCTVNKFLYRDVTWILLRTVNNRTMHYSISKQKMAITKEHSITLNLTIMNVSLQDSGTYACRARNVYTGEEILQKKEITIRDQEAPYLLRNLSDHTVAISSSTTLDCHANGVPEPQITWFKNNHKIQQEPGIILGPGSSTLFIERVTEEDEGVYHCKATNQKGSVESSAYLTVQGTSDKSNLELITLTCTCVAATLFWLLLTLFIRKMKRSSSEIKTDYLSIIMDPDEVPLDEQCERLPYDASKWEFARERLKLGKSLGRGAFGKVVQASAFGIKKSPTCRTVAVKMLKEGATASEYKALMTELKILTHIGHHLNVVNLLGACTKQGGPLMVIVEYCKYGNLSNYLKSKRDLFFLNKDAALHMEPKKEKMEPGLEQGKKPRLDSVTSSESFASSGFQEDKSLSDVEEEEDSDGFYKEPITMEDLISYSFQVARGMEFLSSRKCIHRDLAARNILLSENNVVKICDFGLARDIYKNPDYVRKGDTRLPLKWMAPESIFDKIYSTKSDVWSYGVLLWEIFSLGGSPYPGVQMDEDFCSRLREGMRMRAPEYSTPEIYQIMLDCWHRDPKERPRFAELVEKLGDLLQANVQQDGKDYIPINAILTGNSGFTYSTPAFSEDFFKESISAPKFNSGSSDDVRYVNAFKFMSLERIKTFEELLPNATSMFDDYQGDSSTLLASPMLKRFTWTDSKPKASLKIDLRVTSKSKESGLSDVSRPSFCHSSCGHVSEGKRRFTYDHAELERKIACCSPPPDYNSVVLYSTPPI
Sequence of CSNK1G2 (P78368 whole entry): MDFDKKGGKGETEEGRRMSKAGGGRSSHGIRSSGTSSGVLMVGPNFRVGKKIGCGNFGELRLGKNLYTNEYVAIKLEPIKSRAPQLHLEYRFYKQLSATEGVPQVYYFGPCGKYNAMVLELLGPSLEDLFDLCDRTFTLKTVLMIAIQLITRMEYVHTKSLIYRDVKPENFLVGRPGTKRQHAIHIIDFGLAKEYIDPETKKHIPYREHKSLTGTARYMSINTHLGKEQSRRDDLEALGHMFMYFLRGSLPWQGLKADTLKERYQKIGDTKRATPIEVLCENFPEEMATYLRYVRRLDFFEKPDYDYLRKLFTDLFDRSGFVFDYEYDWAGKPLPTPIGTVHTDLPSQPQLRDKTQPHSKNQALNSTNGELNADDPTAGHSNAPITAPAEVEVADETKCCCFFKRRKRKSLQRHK

SMILES: NC(=O)c1cccc2cn(-c3ccc([C@@H]4CCCNC4)cc3)nc12 [Niraparib]
percent of control binding at 10 µM (FLT1; [2]): 100% | percent of control binding at 10 µM (ERK2; [2]): 93% | percent of control binding at 10 µM (PIK3CA(H1047Y); [2]): 66% | percent of control binding at 10 µM [1, 2]: 90% | percent of control binding at 10 µM (DMPK; [2]): 90% | percent of control binding at 10 µM (FLT3(R834Q); [2]): 100% | percent of control binding at 10 µM (CSNK1G2; [2]): 79% | percent of control binding at 10 µM (ZAP70; [2]): 100%

percent of control binding at 10 µM (FLT1; [3]): 99% | percent of control binding at 10 µM (ERK2; [3]): 93% | percent of control binding at 10 µM (PIK3CA(H1047Y); [3]): 100% | percent of control binding at 10 µM [1, 3]: 79% | percent of control binding at 10 µM (DMPK; [3]): 98% | percent of control binding at 10 µM (FLT3(R834Q); [3]): 79% | percent of control binding at 10 µM (CSNK1G2; [3]): 81% | percent of control binding at 10 µM (ZAP70; [3]): 93%
SMILES: O=C(c1cc(Cc2n[nH]c(=O)c3ccccc23)ccc1F)N1CCN(C(=O)C2CC2)CC1 [Olaparib]

percent of control binding at 10 µM (FLT1; [4]): 93% | percent of control binding at 10 µM (ERK2; [4]): 94% | percent of control binding at 10 µM (PIK3CA(H1047Y); [4]): 75% | percent of control binding at 10 µM [1, 4]: 72% | percent of control binding at 10 µM (DMPK; [4]): 100% | Rucaparib / %Ctrl @ 10000nM (FLT3(R834Q); binding competition, % of control): 81% | percent of control binding at 10 µM (CSNK1G2; [4]): 89% | percent of control binding at 10 µM (ZAP70; [4]): 80%
SMILES: CNCc1ccc(-c2[nH]c3cc(F)cc4c3c2CCNC4=O)cc1 [Rucaparib]

percent of control binding at 10 µM (FLT1; [5]): 100% | percent of control binding at 10 µM (ERK2; [5]): 100% | percent of control binding at 10 µM (PIK3CA(H1047Y); [5]): 89% | percent of control binding at 10 µM [1, 5]: 75% | percent of control binding at 10 µM (DMPK; [5]): 83% | percent of control binding at 10 µM (FLT3(R834Q); [5]): 100% | percent of control binding at 10 µM (CSNK1G2; [5]): 91% | percent of control binding at 10 µM (ZAP70; [5]): 100%
SMILES: Cn1ncnc1[C@H]1c2n[nH]c(=O)c3cc(F)cc(c23)N[C@@H]1c1ccc(F)cc1 [Talazoparib]
